This is an account of results in paper PMC9822270, “Modulation Effect on Tubulin Polymerization, Cytotoxicity and Antioxidant Activity of 1H-Benzimidazole-2-Yl Hydrazones” (Molecules, 2022).

Assay [1] in a line: Hydroxyl radical averting capacity (HORAC). The settings on record: gallic acid equivalents; sample final concentration 2.5 μM; Co(II)/H2O2, fluorescein; mean. On the procedure: HORAC values of various phenolic compounds are related to their metal chelating properties and molecules that can chelate metals show significant HORAC values. According to the HORAC assays, the antioxidant capacity ranged between 0.50 and 3.03 GAE. […] To our knowledge, the current study is the first one to report ORAC and HORAC activities of 1H-benzimidazole-2-yl hydrazones.
HORAC was performed according to Ou et al. and fluorescein was used as the fluorescent probe. Hydrogen peroxide solution of 0.55 M was prepared in distilled water. 4.6 mM Co(II) was prepared as follows: 15.7 mg of CoF2.4H2O and 20 mg of picolinic acid were dissolved in 20 mL of distilled water. Fluorescein—170 µL (60 nM, final concentration) and 10 µL of sample were incubated at 37 °C for 10 min directly in the FLUOstar plate reader. […] The initial fluorescence was measured after which the readings were taken every minute after shaking. […] The AUC were calculated as they were for the ORAC assay. One HORAC unit was assigned to the net protection area provided by 1 µM gallic acid (final concentration −0.05 μM) and the activity of the sample was expressed as Gallic Acid Equivalents (GAE).
ORAC and HORAC analyses were carried out on a FLUOstar Galaxy plate reader (BMG Labtechnology, Offenburg, Germany) with excitation wavelength = 485 nm and emission wavelength = 520 nm.

Assay [2] addresses T1, porcine brain tubulin (Sus scrofa, UniProt P02550+P02554).
T1 construct: The standard reaction mixture contains 95 μL of 4 mg.mL^−1 porcine brain tubulin; purchased Cytoskeleton, USA BK004P; host or cells: porcine brain (tissue-purified)
The assay is described as follows: In vitro tubulin polymerization assay (turbidity at 340 nm). The settings on record: 10 µM compound; 37 °C, 90 min, turbidity 340 nm. Type of assay: biochemical. On the procedure:
The ability of the compounds to modulate the polymerization of tubulin was evaluated in vitro on purified porcine tubulin by spectrophotometric monitoring at 340 nm and compared to those of nocodazole and paclitaxel as reference compounds. Nocodazole which inhibits the assembly of tubulin was used as a positive control, and paclitaxel which is a stabilizing agent of tubulin polymerization was used as a negative control. Tubulin polymerization was determined with 10 µM of the reference drugs and compounds 1a–l for 90 min.
Figure 3 Porcine brain tubulin (final […]) in presence of PB-GTP buffer, 10 µM paclitaxel, 10 µM nocodazole and 10 µM of the assayed compounds. Reaction was conducted in thermostated spectrophotometric chamber at 37 °C for 90 min. Turbidity was measured at 340 nm every 30 s.
The effect of the studied compounds on the polymerization of purified porcine tubulin was monitored using a commercial assay kit (cat. number BK004P), purchased from Cytoskeleton, USA. Stock solutions of porcine brain tubulin solutions (4 mg.mL^−1) were prepared immediately prior to use in general tubulin buffer (80 mM piperazine-N,N′-bis(2-ethanesulfonic acid, PIPES) pH 6.9, 2 mM MgCl2 and 0.5 mM (ethylene glycol-bis(β-aminoethyl ether)-N,N,N′,N′-tetraacetic acid, EGTA) containing 1 mM guanosine triphosphate (GTP) (G-PEM buffer). Stock solutions of Paclitaxel (100 µM), Noconazole (100 µM) or tested samples (100 µM) in G-PEM buffer containing 5% DMSO were prepared.
The standard reaction mixture contains 95 μL of 4 mg.mL^−1 porcine brain tubulin and 5 μL of standards, test samples or G-PEM buffer only (control). Then, the microplate with loaded reaction mixtures was incubated for 90 min. at 37 °C in a thermostated spectrophotometer chamber. The turbidity of the mixtures was measured at 340 nm every 30 s. The experiment was performed on SpectroStar Nano (BMG Labtech, Aylesbury, UK) equipped with software for kinetic measurements.

T1 sequence (P02550 whole entry): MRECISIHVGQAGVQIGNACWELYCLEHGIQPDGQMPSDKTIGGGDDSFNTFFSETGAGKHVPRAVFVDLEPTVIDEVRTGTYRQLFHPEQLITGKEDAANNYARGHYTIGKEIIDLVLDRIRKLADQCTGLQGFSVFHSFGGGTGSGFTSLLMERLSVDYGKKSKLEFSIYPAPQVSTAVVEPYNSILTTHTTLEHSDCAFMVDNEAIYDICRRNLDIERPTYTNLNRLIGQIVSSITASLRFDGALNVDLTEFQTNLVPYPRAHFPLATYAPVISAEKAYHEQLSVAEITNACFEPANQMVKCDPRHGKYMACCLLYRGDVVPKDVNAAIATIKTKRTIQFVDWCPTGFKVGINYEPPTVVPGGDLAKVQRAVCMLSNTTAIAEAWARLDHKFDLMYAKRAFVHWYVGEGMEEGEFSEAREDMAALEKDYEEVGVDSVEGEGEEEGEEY
T1 sequence (P02554 whole entry): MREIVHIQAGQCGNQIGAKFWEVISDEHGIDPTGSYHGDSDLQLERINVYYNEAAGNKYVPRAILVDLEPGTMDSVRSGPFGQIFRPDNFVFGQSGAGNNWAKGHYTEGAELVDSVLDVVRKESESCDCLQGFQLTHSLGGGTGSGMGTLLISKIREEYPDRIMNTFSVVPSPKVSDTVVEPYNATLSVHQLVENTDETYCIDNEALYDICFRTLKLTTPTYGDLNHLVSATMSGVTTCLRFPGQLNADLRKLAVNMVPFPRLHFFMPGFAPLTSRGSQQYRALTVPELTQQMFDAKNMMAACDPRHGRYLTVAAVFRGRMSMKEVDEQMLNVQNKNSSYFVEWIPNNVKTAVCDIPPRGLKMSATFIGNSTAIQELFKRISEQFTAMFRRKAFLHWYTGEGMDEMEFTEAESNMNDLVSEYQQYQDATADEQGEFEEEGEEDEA

With `Oc1ccc(/C=N/Nc2nc3ccccc3[nH]2)c(O)c1` [Compound 1c], the HORAC in assay [1] is given as 2.69 GAE. Moreover, in assay [2], the “Initial Rate of the Exponential Phase, Signal Response” value was 4.9 a.u.s^−1 × 10^−6 and the “Lag Time” value worked out at 1190 s.
With `Oc1ccc(/C=N/Nc2nc3ccccc3[nH]2)c(O)c1O` [Compound 1e], the HORAC in assay [1] is on record as 2.79 GAE.
